According to patent publication US5552155A, “Fusogenic lipsomes and methods for making and using same” (The Liposome Company, Inc., priority 1994, dated 1996):

Key:
[1] = 2H-NMR phase behavior of AL-1-d4 in MLVs; type: physicochemical; conditions: for phase behavior by 2H-NMR (in words): 10 mole % AL-1-d4 in EPC/Chol (55:45)
Protocol: Freeze-thawed MLVs of 10 mole % AL-1-d4 in EPC/Chol (55:45) were prepared as described above in 100 mM ammonium acetate at pH 4.0 and pH 7.5 in deuterium-depleted water. Sample concentrations were approximately 150 mM total lipid. Broad line quadrupole spectra were recorded on a Bruker MSL200 spectrometer at 30.7 MHz, using a spin-echo sequence with a 5.3 μs 90° pulse and a 200 ms repeat delay. Temperature was maintained at 20° C. with a liquid nitrogen flow system. […] FIDs were transformed using 100 Hz line-broadening.
Freeze-thawed MLVs containing 5 mole percent AL-1-d4 in EPC/Chol (55:45) were prepared in 20 mM HEPES, 20 mM ammonium acetate, 150 mM NaCl, pH 4.0 and pH 7.5, using deuterium-depleted water. Sample concentrations were approximately 200 mM total lipid. ^2 H-NMR broadline spectra were recorded at 46.175 MHz, on a home-built 300 MHz spectrometer using a 5 μs 90° pulse, 50 μs interpulse spacing, 30.5 μs ring-down delay, and a 300 ms repetition time. A quadrupole echo sequence with eight-step phase cycling was used to accumulate 200,000 scans. The resulting free induction decay (FID) was transformed with 100 Hz line-broadening. High resolution ^31 P spectra were recorded at 81 MHz on a Bruker MSL200 spectrometer, using a 2.8 μs pulse and 30 s repeat. Temperature was maintained at 23 degrees Celsius with a liquid nitrogen flow system. The FID was accumulated over 1000 scans, and transformed with 50 Hz line broadening.
The use of MLVs in this experiment avoids the rapid tumbling of LUVs on the NMR time scale. […] At pH 7.5, the bilayer signal is no longer present, and a strong isotropic peak appears in the middle of the spectrum.

[2] = Lipid-mixing fusion assay by RET fluorescent probe dilution, EPC/DOPE/Chol liposomes; conditions: for order of fusion traces, uppermost-lowermost / fusion of liposomes / fusion rate (in words): 5 mole % aminolipid, FIG. 9; for order of fusion traces, uppermost-lowermost: EPC/Chol/DOPE (35:20:45); for fusion of liposomes / fusion rate (in words): EPC/DOPE/Chol (35:20:45)
Protocol: (§1) Fusion was monitored by the decrease in resonance energy transfer (RET) resulting from fluorescent probe dilution, as described by Struck et al. (1981). […] The external buffer was 20 mM HEPES (150 mM NaCl, pH 7.5). […] Labeled and unlabeled liposomes were mixed in a 1:3 ratio, and diluted to 0.2 mM total lipid. External buffer was exchanged for 300 mM sucrose, 1 mM citrate, pH 4.0, on Sephadex G-25 columns before diluting preparations to 10 mM lipid. For fusion assays, 20 μl of fluorescently labeled liposomes, and 60 μl unlabeled liposomes, were added to 3.92 ml of 20 mM HEPES, 150 mM NaCl, pH 7.5. After 5 min. of incubation at room temperature, a 3 ml aliquot was added to a cuvette, and the fluorescence was monitored over 5 minutes. Excitation and emission wavelengths were 465 and 535 nm, respectively, and an emission 530 nm cutoff filter was used. To dissipate the gradient and induce fusion, ammonium acetate was added to a final concentration of 100 mM at 30 seconds. The percent change in fluorescence (% F/Fmax) was determined by assigning zero fluorescence (F0) to a trace with no ammonium acetate added and Fmax to a trace measured after adding 100 μl of 25 mM Triton X-100, so that:
(§2) % (F/Fmax)=100×((F-F0)/(Fmax -F0))
To study the effect of aminolipid structure on the fusion of EPC/Chol/DOPE liposomes (35:20:45) liposomes were prepared with 5 mole % of the indicated aminolipid (AL-1-AL-6), an internal pH 4.0, 300 mM sodium citrate buffer, and an external 20 mM HEPES buffer (150 mM NaCl, pH 7.5). Fusion assays were carried out as described above.
(§3) Membrane fusion was monitored by a loss in RET between the fluorescently labeled lipids NBD-PE and Rh-PE. When liposomes containing both of these labels fuse with unlabeled liposomes, the resulting dilution of the fluorescent probes gives increased fluorescence for NBD-PE.

[3] = TNS fluorescence pH titration: apparent pKa and % charged of aminolipids in liposomal membranes; type: physicochemical; conditions: for pKa in the lipid bilayer (text / figure legend): TNS fluorescence titration, 10 mole % AL-1 in EPC/Chol (55:45), no pH gradient (nigericin); for Apparent pKa: in liposomes, from fit of TNS fluorescence titrations to Henderson-Hasselbach equation; for pKa's and relative charges at pH 7.5 (in words): compared with AL-1
Protocol: Preparations were diluted to 0.25 mM total lipid in 5 mM HEPES, 5 mM ammonium, 2 μM TNS at pHs ranging from 3.0 to 10.0 The pH across the vesicle membranes was rendered equal by adding nigericin to a final concentration of 0.01 μM. The TNS fluorescence at each pH value was determined under the conditions given above.
*The data were derived from TNS fluorescence titrations. Curves for each
aminolipid were fitted to the HendersonHasselbach equation by iteratively
varying pKa and maximum and minimum fluorescence.

[4] = Lipid-mixing fusion assay by RET fluorescent probe dilution, EPC/Chol (55:45) liposomes; conditions: for ΔF/ΔFmax (fusion): pH gradient dissipated by ammonium acetate
Protocol: as §1, §2
The labeled and unlabeled liposomes were mixed in a 1:3 ratio and diluted to 0.20 mM total lipid. The pH gradient was dissipated by the addition of ammonium acetate to a final concentration of 100 mM at 30 seconds.
as §3

[5] = Lipid-mixing fusion assay by RET fluorescent probe dilution, EPC/DOPE/Chol liposomes
[6] = Lipid asymmetry (transport of aminolipid to the inner monolayer) by TNS fluorescence; type: physicochemical; conditions: internal pH 4, external pH 7.5
Protocol: Aliquots of 90 μl were added to 2.9 ml of 20 mM HEPES, 150 mM NaCl, 5 μM TNS, pH 7.5, and fluorescence was monitored over 5 minutes.
However, at higher concentrations, the fluorescence levels off and begins to decrease.
The slow decreases in fluorescence observed in these curves is a result of photobleaching of TNS during the course of the experiments. […] The rapid movement of the AL-1 across the bilayer is advantageous for its use in controlling fusion.

[7] = Aggregation / stability of aminolipid-containing liposomes; type: physicochemical
[8] = Table 1, from TNS fluorescence titrations
[9] = 10 mole % AL-1 in EPC/Chol (55:45)

Compound: [2H]/C(CCCCCCCC)=C(\[2H])CCCCCCCC(=O)OCC(CN(C)C)OC(=O)CCCCCCC/C([2H])=C(/[2H])CCCCCCCC (racemic) [AL-1-d4, rac-1-N,N-dimethylamino-2,3-bis(9,10-dideuteriooleoyl)propane]
- 2H-NMR quadrupolar splitting of signal believed to arise from aminolipid in HII phase ([1]; 5 mole % AL-1-d4, EPC/DOPE/Chol, pH 7.5, FIG. 8A): about 12 kHz
- phase behavior by 2H-NMR (in words) ([1]; pH 4.0): quadrupolar splittings for the chain-labeled positions of AL-1-d4, with the expected magnitude for lipid in the bilayer

Compound: CCCCCCCC/C=C\CCCCCCCC(=O)OCC(O)CN(C)C (racemic) [AL-2, ±-oleoyl-2-hydroxy-3-N,N-dimethylaminopropane]
- order of fusion traces, uppermost-lowermost [2]: AL-1, AL-5, AL-4, AL-3, AL-6, AL-2 and blank
- fusion of liposomes / fusion rate (in words) [2]: little increase in liposome fusion in comparison with liposomes not containing aminolipid
- pKa in the lipid bilayer (text / figure legend) [3]: about 7.57
- Apparent pKa ([3]; Table 1): 7.57
- % Charged at pH 7.5 [3, 8]: 54%

Compound: CCCCCCCC/C=C\CCCCCCCC(=O)OCC(CN(C)C)OC(C)=O (racemic) [AL-3]
- order of fusion traces, uppermost-lowermost [2]: AL-1, AL-5, AL-4, AL-3, AL-6, AL-2 and blank
- fusion of liposomes / fusion rate (in words) [2]: substantially greater fusion rate
- pKa in the lipid bilayer (text / figure legend) [3]: 6.79
- % Charged at pH 7.5 [3, 8]: 16%
- % Charged at pH 7.5 [3]: 16%

Compound: CCCCCCCC/C=C\CCCCCCCC(=O)OCC(CN(C)C)OC(=O)CCC (racemic) [AL-4]
- order of fusion traces, uppermost-lowermost [2]: AL-1, AL-5, AL-4, AL-3, AL-6, AL-2 and blank
- fusion of liposomes / fusion rate (in words) [2]: further increases in the fusion rate, with rates approaching those achieved with AL-1--containing liposomes
- Apparent pKa ([3]; Table 1): 6.66
- % Charged at pH 7.5 [3, 8]: 13%
- pKa's and relative charges at pH 7.5 (in words) [3]: approach those for AL-1

Compound: CCCCCCCC/C=C\CCCCCCCC(=O)OCC(CN(C)C)OC(=O)CCCCCCCCC (racemic) [AL-5]
- order of fusion traces, uppermost-lowermost [2]: AL-1, AL-5, AL-4, AL-3, AL-6, AL-2 and blank
- fusion of liposomes / fusion rate (in words) [2]: further increases in the fusion rate, with rates approaching those achieved with AL-1--containing liposomes
- % Charged at pH 7.5 [3, 8]: 14%
- pKa's and relative charges at pH 7.5 (in words) [3]: approach those for AL-1

Compound: CCCCCCCCCC(=O)OCC(CN(C)C)OC(=O)CCCCCCCCC (racemic) [AL-6, ±-1,2-didecanoyl-1-N,N,-dimethyl-aminopropane]
- order of fusion traces, uppermost-lowermost [2]: AL-1, AL-5, AL-4, AL-3, AL-6, AL-2 and blank
- fusion of liposomes / fusion rate (in words) [2]: only limited mixing
- % Charged at pH 7.5 [3, 8]: 17%
- pKa's and relative charges at pH 7.5 (in words) [3]: approach those for AL-1

Compound: CCCCCCCC/C=C\CCCCCCCC(=O)OCC(CN(C)C)OC(=O)CCCCCCC/C=C\CCCCCCCC (centres unmarked) [AL-1, 1-N,N-dimethylamino dioleoyl propane]
- ΔF/ΔFmax (fusion) ([4]; 10 mole % AL-1, EPC/Chol (55:45)): ~3%
- ΔF/ΔFmax (fusion) ([4]; 20 mole % AL-1, EPC/Chol (55:45)): ~3%
- degree of fusion (in words) ([4]; AL-1 in EPC/Chol (55:45)): limited degree of fusion
- fusion rate with increasing DOPE (in words) ([5]; 10 mole % AL-1, DOPE replacing EPC up to 35:20:45 EPC/DOPE/Chol, FIG. 6): Increasing fusion rates were evident with increasing DOPE concentrations
- ΔF/ΔFmax (fusion) ([5]; 10 mole % AL-1, EPC/DOPE/Chol 35:20:45, after 5 minutes): over 5%
- ΔF/ΔFmax (fusion) ([5]; 10 mole % AL-1, EPC/DOPE/Chol (30:25:45), over 5 minutes after gradient dissipation): ~10%
- ΔF/ΔFmax (fusion) ([2]; 5 mole % AL-1, EPC/DOPE/Chol (35:20:45), first 5 minutes): greater than 10%
- order of fusion traces, uppermost-lowermost [2]: AL-1, AL-5, AL-4, AL-3, AL-6, AL-2 and blank
- time until TNS fluorescence equal to that of EPC/Chol liposomes (virtually all AL-1 moved to the inner monolayer) [6, 9]: four
- transbilayer movement to the inner monolayer (in words) ([6]; pH gradient): virtually all of the AL-1 had moved to the inner monolayer
- liposome stability (in words) ([7]; 5 mole % AL-1, EPC/DOPE/Chol (35:20:45), pH 4.0 and external pH 7.5): stable liposomes were prepared, and these remained stable when the external pH was increased to 7.5
- liposome aggregation (in words) ([7]; 10 mole % AL-1, EPC/DOPE/Chol 35:20:45, low pH): some aggregation of liposomes was observed at low pH
- liposome aggregation (in words) ([7]; 10 mole % AL-1, EPC/DOPE/Chol, DOPE above 35:20:45): rapid aggregation
- liposome aggregation (in words) [7, 9]: aggregated
- liposome aggregation (in words) ([7]; AL-1 greater than about 20 mole % in EPC/Chol, following extrusion): rapid and complete liposome aggregation
- phase behavior by 2H-NMR (in words) ([1]; pH 7.5): exists in separate fluid domains at pH 7.5
